The text below walks through data of patent publication US20090326003A1, “PYRAZOLO (3, 4-B) PYRIDINE DERIVATIVES AS PDE4 INHIBITORS” (priority 2006, published 2009).

The subject of this test is TNF-α production in human PBMC (peripheral blood mononuclear cells). The test is described as follows: Inhibition of TNF-alpha production in human PBMC (MSD technology). The class given is cell-based. Particulars: inhibition of LPS-stimulated TNF-α production in human PBMC; measured and/or mean; read-out: PBMC pIC50 (MSD assay) (converted). As for the experimental part:
A 96-well plate (96 MicroWell™ Plates Nunclon™Δ-High Flange Design, Fisher Scientific UK, Bishop Meadow Road, Loughborough LE 11 5 RG, Leicestershire, UK) is prepared by initially adding to column 1 ca. 10 mM of test compound dissolved in DMSO. […] The compound is further diluted with DMSO into columns 2 to 9 by 8 successive 3fold dilutions using the Biomek® FX Laboratory Automation Workstation (Beckman Coulter, Inc., 4300 N. Harbor Boulevard, P.O. Box 3100, Fullerton, Calif. 92834-3100 USA). Column 10 is used as a DMSO negative control (High Signal, 0% response), whilst column 11, which contains 10 mM of the PDE4 inhibitor roflumilast, is used as a positive control (Low Signal, 100% response). About 1 μl (about 1 ul) of compound is transferred to the compound plate using the Biomek® FX.
PBMC cells (peripheral blood mononuclear cells) are prepared from heparinised human blood (using 1% v/v Heparin Sodium 10001 U/ml Endotoxin Free, Leo Laboratories Ltd., Cashel Road, Dublin 12. Ireland, Cat No: PL0043/0149) from normal volunteers using the Accuspin™ System-Histopaque®-1077 essentially (Sigma-Aldrich Company Ltd., The Old Brickyard New Rd, Gillingham Dorset SP8 4XT). About 20 ml of blood is overlaid onto 15 ml Histopaque® in Accuspin™ tubes. The tube is then centrifuged at about 800 g for ca. 20 minutes. The cells are collected from the interface, washed by centrifugation (ca. 1300 g, ca. 10 minutes) and resuspended in RPMI1640 medium (Low endotoxin RPMI1640 medium, Cat No: 31870-025, Invitrogen Corporation Invitrogen Ltd, 3 Fountain Drive, Inchinnan Business Park, Paisley PA4 9RF, UK) containing 10% foetal calf serum, 1% L-glutamine (Invitrogen Corporation, Cat No: 25030024) and 1% penicillin/streptomycin (Invitrogen Corporation, Cat No: 15140-122). Viable cells are counted by trypan blue staining and diluted to 1×10^6 viable cells/ml. About 50 μl (about 50 ul) of diluted cells and about 75 μl (about 75 ul) of LPS (ca. 1 ng/ml final; Sigma Cat No: L-6386) are added to the compound plate, which is then incubated at 37° C., 5% CO2, for 20 hours.
The supernatant is removed and the concentrations of TNF-α are determined by electrochemiluminescence assay using the Meso Scale Discovery (MSD) technology (Meso Scale Discovery, 9238 Gaither Road, Gaithersburg, Md. 20877, USA). See the “TNF-α (TNF-alpha) MSD Assay” described below for typical details.
Using the Biomek FX, 25 μl (25 ul) of MSD Human Serum Cytokine Assay Diluent (Meso Scale Discovery, 9238 Gaither Road, Gaithersburg, Md. 20877) is added to a 96-well High-Bind MSD plate pre-coated with anti-hTNF alpha capture antibody (MA6000) and then incubated for 24 hours at 4° C. to prevent non-specific binding. […]
For the PBMC assay, about 20 μl (ul) of diluted sulfo-TAG antibody (ca. 1 μg/ml final) is added to each well, and the plates/wells are shaken at room temperature for 2 hours. Finally, about 90 μl (ul) of MSD Read Buffer P (diluted to 2.5 times with distilled water) is added and the plates are read on a MSD Sector 6000.
Data analysis is performed with ActivityBase/XC50 module (ID Business Solutions Ltd., 2 Occam Court, Surrey Research Park, Guildford, Surrey, GU2 7QB UK). Data are normalized and expressed as % inhibition using the formula 100*((U-C1)/(C2-C1)) where U is the unknown value, C1 is the average of the high signal (0%) control wells (column 10), and C2 is the average of the low signal (100%) control wells (column 11). […]
Take `CCc1nc2c(cnn2CC)c(NC2CCOCC2)c1CNC(=O)c1ccc(-c2ccc(C(=O)NCc3c(CC)nc4c(cnn4CC)c3NC3CCOCC3)cc2)cc1` [Example 23, N,N′-bis{[1,6-diethyl-4-(tetrahydro-2H-pyran-4-ylamino)-1H-pyrazolo[3,4-b]pyridin-5-yl]methyl}-4,4′-biphenyldicarboxamide]: the IC50 is about 126 pM.

For `CCn1ncc2c(NC3CCOCC3)c(CNC(=O)c3cccc(-c4cccc(C(=O)NCc5c(C)nc6c(cnn6CC)c5NC5CCOCC5)c4)c3)c(C)nc21` [Example 29, N,N′-bis{[1-ethyl-6-methyl-4-(tetrahydro-2H-pyran-4-ylamino)-1H-pyrazolo[3,4-b]pyridin-5-yl]methyl}-3,3′-biphenyldicarboxamide], the IC50 was about 794 pM.

`CCc1nc2c(cnn2CC)c(NC2CCOCC2)c1CNC(=O)c1ccc(C(=O)NCc2c(CC)nc3c(cnn3CC)c2NC2CCOCC2)o1` [Example 35, N,N′-bis{[1,6-diethyl-4-(tetrahydro-2H-pyran-4-ylamino)-1H-pyrazolo[3,4-b]pyridin-5-yl]methyl}-2,5furandicarboxamide]: the IC50 was about 100 pM.
